Test results: patent US20070128217A1 (priority 2003, published 2007)

Columns and labels:
[1] = system: control sera (pooled serum of ten healthy LUMC hospital workers; commercial negative donor pooled serum from the Dutch bloodbank); format: binding, human; parameters: Binding of Control serum LUMC to linear peptides / Binding of Control serum Blood-bank to linear peptides / Binding of Control serum LUMC to looped peptides / Binding of Control Serum Blood-Bank to Looped peptides / Binding of Control serum LUMC to linear peptides of the protein M of SARS-CoV Urbani / Binding of Control serum Blood-bank to linear peptides of the protein M of SARS-CoV Urbani / Binding of Control serum LUMC to looped peptides of the protein M of SARS-CoV Urbani / Binding of Control Serum Blood-Bank to Looped peptides of the protein M of SARS-CoV Urbani: unit not given here
[2] = system: antibodies in sera from SARS patients (sera 1a, 1b, 2, 6, 37, 62, London, SARS-yellow, SARS-green); format: binding, human; parameters: Binding of serum 6 to linear peptides of protein X1 of SARS-CoV Urbani / Binding of serum 37 to linear peptides of protein X1 of SARS-CoV Urbani / Binding of serum 6 to looped/cyclic peptide (PEPSCAN-ELISA) / Binding of serum 37 to looped/cyclic peptide (PEPSCAN-ELISA) / Binding of serum 37 to looped/cyclic peptides of protein X1 of SARS-CoV Urbani / Binding of serum 6 to linear peptides of protein X2 / Binding of serum 37 to linear peptides of protein X2 / Binding of serum 37 to looped/cyclic peptides of protein X2 of SARS-CoV Urbani / Binding of serum 6 to linear peptides of protein M of SARS-CoV Urbani / Binding of serum 37 to linear peptides of protein M of SARS-CoV Urbani / Binding of serum 6 to looped/cyclic peptides of protein M of SARS-CoV Urbani / Binding of serum 37 to looped/cyclic peptides of protein M of SARS-CoV Urbani / Binding of serum 6 to linear peptides of protein X3 of SARS-CoV Urbani / Binding of serum 37 to linear peptides of protein X3 of SARS-CoV Urbani / Binding of serum 37 to looped/cyclic peptides of protein X3 of SARS-CoV Urbani / Binding of serum 6 to linear peptides of protein X4 of SARS-CoV Urbani / Binding of serum 37 to linear peptides of protein X4 of SARS-CoV Urbani / Binding of serum 37 to looped/cyclic peptides of protein X4 of SARS-CoV Urbani / Binding of serum 6 to linear peptides of protein X5 of SARS-CoV Urbani / Binding of serum 37 to linear peptides of protein X5 of SARS-CoV Urbani / Binding of serum 37 to looped/cyclic peptides of protein X5 of SARS-CoV Urbani / Binding of serum 6 to linear peptides of protein N of SARS-CoV Urbani / Binding of serum 37 to linear peptides of protein N of SARS-CoV Urbani / Binding of serum 6 to linear peptide (PEPSCAN-ELISA) / Binding of serum 1a to looped/cyclic peptides of protein N of SARS-CoV Urbani / Binding of serum 1b to looped/cyclic peptides of protein N of SARS-CoV Urbani / Binding of serum 2 to looped/cyclic peptides of protein N of SARS-CoV Urbani / Binding of serum 6 to looped/cyclic peptides of protein N of SARS-CoV Urbani / Binding of serum 37 to looped/cyclic peptides of protein N of SARS-CoV Urbani / Binding of serum 62 to looped/cyclic peptides of protein N of SARS-CoV Urbani / Binding of serum London to looped/cyclic peptides of protein N of SARS-CoV Urbani / Binding of serum SARS-green to looped/cyclic peptides of protein N of SARS-CoV Urbani: unit not given here
[3] = system: recombinant human anti-SARS-CoV antibody 03-018; format: binding; parameters: Binding of antibody 03-018 to linear peptides of the N protein of SARS-CoV Urbani / Binding of antibody 03-018 to looped/cyclic peptides of the N protein of SARS-CoV Urbani: unit not given here
[4] = system: rabbit serum obtained by immunizing a rabbit with the SARS-CoV strain Frankfurt 1; format: binding; parameters: Binding of a rabbit serum to linear peptides / Binding of a rabbit serum to looped peptides / Rabbit serum linear peptides / Rabbit serum looped peptides / Binding of a rabbit serum to linear peptides of protein N of SARS-CoV Urbani (Rabbit serum linear peptides) / Binding of a rabbit serum to looped/cyclic peptides of protein N of SARS-CoV Urbani (Rabbit serum looped peptides): unit not given here

Sequence	Binding of Control Serum Blood-Bank to Looped peptides [1]	Binding of Control serum Blood-bank to linear peptides [1]	Binding of Control serum LUMC to linear peptides [1]	Binding of Control serum LUMC to looped peptides [1]	Binding of serum 1a to looped/cyclic peptides of protein N of SARS-CoV Urbani [2]	Binding of serum 1b to looped/cyclic peptides of protein N of SARS-CoV Urbani [2]	Binding of serum 2 to looped/cyclic peptides of protein N of SARS-CoV Urbani [2]	Binding of serum 6 to looped/cyclic peptides of protein N of SARS-CoV Urbani [2]	Binding of serum 37 to looped/cyclic peptides of protein N of SARS-CoV Urbani [2]	Binding of serum 62 to looped/cyclic peptides of protein N of SARS-CoV Urbani [2]	Binding of serum London to looped/cyclic peptides of protein N of SARS-CoV Urbani [2]	Binding of serum SARS-green to looped/cyclic peptides of protein N of SARS-CoV Urbani [2]	Binding of serum SARS-yellow to looped/cyclic peptides of protein N of SARS-CoV Urbani [2]	Binding of antibody 03-018 to linear peptides of the N protein of SARS-CoV Urbani [3]	Binding of antibody 03-018 to looped/cyclic peptides of the N protein of SARS-CoV Urbani [3]	Binding of a rabbit serum to linear peptides of protein N of SARS-CoV Urbani (Rabbit serum linear peptides) [4]	Binding of a rabbit serum to looped/cyclic peptides of protein N of SARS-CoV Urbani (Rabbit serum looped peptides) [4]	Binding of serum 1a to linear peptides of protein N of SARS-CoV Urbani [2]	Binding of serum 1b to linear peptides of protein N of SARS-CoV Urbani [2]	Binding of serum 2 to linear peptides of protein N of SARS-CoV Urbani [2]	also measured
ETALALLLLDRLNQL	0.8	0.5	0.5	0.7	0.4	0.3	0.4	0.2	0.7	0.6	0.5	0.4	0.5	0.1	0.3	0.4	0.6	–	–	–	Binding of serum 1a to linear peptide (PEPSCAN-ELISA) [2]: 0.2; Binding of serum 1b to linear peptide (PEPSCAN-ELISA) [2]: 0.1; Binding of serum 2 to linear peptide (PEPSCAN-ELISA) [2]: 0.1; Binding of serum 6 to linear peptide (PEPSCAN-ELISA) [2]: 0.1; Binding of serum 37 to linear peptide (PEPSCAN-ELISA) [2]: 0.6; Binding of serum 62 to linear peptide (PEPSCAN-ELISA) [2]: 0.4; Binding of serum London to linear peptide (PEPSCAN-ELISA) [2]: 0.5; Binding of serum SARS-green to linear peptide (PEPSCAN-ELISA) [2]: 0.3; Binding of serum SARS-yellow to linear peptide (PEPSCAN-ELISA) [2]: 0.5
FGGPTDSTDNNQNGG	0.4	0.6	0.5	0.4	0.2	0.1	0.2	0.1	0.4	0.2	0.2	0.3	0.1	0.1	0.2	0.0	0.1	0.3	0.1	0.1	Binding of serum 6 to linear peptides of protein N of SARS-CoV Urbani [2]: 0.1; Binding of serum 37 to linear peptides of protein N of SARS-CoV Urbani [2]: 0.6; Binding of serum 62 to linear peptides of protein N of SARS-CoV Urbani [2]: 0.5; Binding of serum London to linear peptides of protein N of SARS-CoV Urbani [2]: 0.5; Binding of serum SARS-green to linear peptides of protein N of SARS-CoV Urbani [2]: 0.0; Binding of serum SARS-yellow to linear peptides of protein N of SARS-CoV Urbani [2]: 0.5
FGRRGPEQTQGNFGD	0.4	0.7	0.6	0.3	0.3	0.1	0.2	0.1	0.4	0.1	0.2	0.2	0.2	0.1	0.1	0.2	0.0	–	–	–	Recognition of the peptide by sera of SARS-CoV infected individuals, and form (linear, looped/cyclic) in which it is recognized [2]: recognized in linear form
FKDNVILLNKHIDAY	–	–	–	–	0.5	0.3	0.5	0.3	0.8	0.8	0.5	0.2	0.5	0.1	0.2	0.1	0.5	0.2	0.1	0.2	Control Serum Blood-Bank Looped peptides [1]: 0.8; Control serum Blood-bank linear peptides [1]: 0.6; Control serum LUMC linear peptides [1]: 0.5; Control serum LUMC looped peptides [1]: 0.8; Binding of serum 6 to linear peptides of protein N of SARS-CoV Urbani [2]: 0.2; Binding of serum 37 to linear peptides of protein N of SARS-CoV Urbani [2]: 0.6; Binding of serum 62 to linear peptides of protein N of SARS-CoV Urbani [2]: 0.6; Binding of serum London to linear peptides of protein N of SARS-CoV Urbani [2]: 0.5; Binding of serum SARS-green to linear peptides of protein N of SARS-CoV Urbani [2]: 0.2; Binding of serum SARS-yellow to linear peptides of protein N of SARS-CoV Urbani [2]: 0.7
FPPTEPKKDKKKKTD	–	–	–	–	0.2	0.1	0.2	0.1	0.4	0.2	0.2	0.0	0.1	0.1	0.2	0.1	0.1	0.2	0.1	1.3	Control Serum Blood-Bank Looped peptides [1]: 0.4; Control serum Blood-bank linear peptides [1]: 0.6; Control serum LUMC linear peptides [1]: 0.6; Control serum LUMC looped peptides [1]: 0.3; Binding of serum 6 to linear peptides of protein N of SARS-CoV Urbani [2]: 0.2; Binding of serum 37 to linear peptides of protein N of SARS-CoV Urbani [2]: 0.6; Binding of serum 62 to linear peptides of protein N of SARS-CoV Urbani [2]: 0.7; Binding of serum London to linear peptides of protein N of SARS-CoV Urbani [2]: 0.6; Binding of serum SARS-green to linear peptides of protein N of SARS-CoV Urbani [2]: 0.1; Binding of serum SARS-yellow to linear peptides of protein N of SARS-CoV Urbani [2]: 0.6
